Key:
[1] = target: MAGL (Mus musculus (Mouse), UniProt O35678); experiment: In vitro competitive activity-based protein profiling, MAGL (mouse); type: biochemical; conditions: for inhibition at 1 µM: read-out: MAGL % inh. 1 μM (mouse)
Summary of the method: (§1)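 Residual MAGL and FAAH activity quantified from fluorescent gel bands after SDS-PAGE. Before that, FP-Rh or HT-01 probe (50 μM stock) labelled for 30 min at 37 °C, following 30 min inhibitor preincubation. Mouse assays used brain membrane fraction or cell lysates, human used prefrontal cortex or cell membranes, all at 1.0 mg/mL protein.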

[2] = target: FAAH (Mus musculus (Mouse), UniProt O08914); experiment: In vitro competitive activity-based protein profiling, FAAH (mouse); type: biochemical; conditions: for inhibition at 1 µM: read-out: FAAH % inh. 1 μM (mouse)
Summary of the method: as §1

Sequence of FAAH (O08914 whole entry): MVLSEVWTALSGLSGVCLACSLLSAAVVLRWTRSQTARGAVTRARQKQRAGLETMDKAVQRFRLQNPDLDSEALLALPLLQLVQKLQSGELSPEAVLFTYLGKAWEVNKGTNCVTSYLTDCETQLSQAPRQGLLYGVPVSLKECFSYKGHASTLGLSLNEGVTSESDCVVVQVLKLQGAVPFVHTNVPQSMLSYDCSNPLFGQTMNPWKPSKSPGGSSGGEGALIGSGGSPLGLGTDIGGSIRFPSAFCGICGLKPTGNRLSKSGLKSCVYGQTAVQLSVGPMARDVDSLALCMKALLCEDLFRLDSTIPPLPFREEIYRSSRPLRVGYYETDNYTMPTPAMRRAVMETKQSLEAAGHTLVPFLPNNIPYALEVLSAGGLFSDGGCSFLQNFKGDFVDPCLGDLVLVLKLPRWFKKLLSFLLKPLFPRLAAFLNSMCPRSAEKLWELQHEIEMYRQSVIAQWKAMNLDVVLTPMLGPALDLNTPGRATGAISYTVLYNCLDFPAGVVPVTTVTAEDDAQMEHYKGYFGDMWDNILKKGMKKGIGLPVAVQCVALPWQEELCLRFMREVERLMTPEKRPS
Sequence of MAGL (O35678 whole entry): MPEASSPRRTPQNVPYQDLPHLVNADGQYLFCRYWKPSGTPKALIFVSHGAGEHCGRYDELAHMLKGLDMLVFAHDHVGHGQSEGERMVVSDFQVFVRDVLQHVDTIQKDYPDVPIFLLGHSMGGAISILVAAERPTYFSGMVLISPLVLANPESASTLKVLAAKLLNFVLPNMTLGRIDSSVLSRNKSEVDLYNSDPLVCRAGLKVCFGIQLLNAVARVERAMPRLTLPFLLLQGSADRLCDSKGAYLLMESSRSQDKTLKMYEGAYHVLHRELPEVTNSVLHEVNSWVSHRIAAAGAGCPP

Row | inhibition at 1 µM [1] [%] | inhibition at 1 µM [2] [%] | IC50 [1] [nM] | IC50 [2] [nM] | SMILES
1 | ≥ 75 | ≥ 75 | – | – | COc1cccc(CN2CCN(C(=O)n3cc(N(C)C(C)=O)cn3)CC2)c1 [Example 207, N-(1-(4-(3-methoxybenzyl)piperazine-1-carbonyl)-1H-pyrazol-4-yl)-N-methylacetamide]
2 | 50 to 75 | ≥ 75 | ≤ 100 | 1000 to 10000 | CS(=O)(=O)Nc1cnn(C(=O)N2CCN(Cc3cc(Cl)ccc3C(F)(F)F)CC2)c1 [Example 293, N-(1-(4-(5-chloro-2-(trifluoromethyl)benzyl)piperazine-1-carbonyl)-1H-pyrazol-4-yl)methanesulfonamide]
3 | ≥ 75 | ≥ 75 | – | – | CC(=O)N(C)c1cnn(C(=O)N2CCC3(CCN(Cc4cc(C(F)(F)F)ccc4C(F)(F)F)C3)C2)c1 (centres unmarked) [Example 72, N-(1-(7-(2,5-bis(trifluoromethyl)benzyl)-2,7-diazaspiro[4.4]nonane-2-carbonyl)-1H-pyrazol-4-yl)-N-methylacetamide]
4 | ≥ 75 | ≥ 75 | ≤ 100 | ≤ 100 | CC(=O)N(C)c1cnn(C(=O)N2CCC3(CCN(Cc4ccc(Cl)cc4Cl)C3)C2)c1 (centres unmarked) [Example 51, N-(1-(7-(2,4-dichlorobenzyl)-2,7-diazaspiro[4.4]nonane-2-carbonyl)-1H-pyrazol-4-yl)-N-methylacetamide]
5 | ≥ 75 | ≥ 75 | ≤ 100 | ≤ 100 | CC(=O)N(C)c1cnn(C(=O)N2CCN(Cc3cccc(Oc4ccccc4)c3)CC2)c1 [Example 202, N-methyl-N-(1-(4-(3-phenoxybenzyl)piperazine-1-carbonyl)-1H-pyrazol-4-yl)acetamide]
6 | ≥ 75 | ≥ 75 | ≤ 100 | ≤ 100 | CC(=O)N(C)c1cnn(C(=O)N2CC3CN(Cc4cc(Cl)cc(N5CCN(C6CC6)CC5)c4)CC3C2)c1 (centres unmarked) [Example 120, N-(1-(5-(3-chloro-5-(4-cyclopropylpiperazin-1-yl)benzyl)octahydropyrrolo[3,4-c]pyrrole-2-carbonyl)-1H-pyrazol-4-yl)-N-methylacetamide]
7 | ≥ 75 | ≥ 75 | 100 to 1000 | ≤ 100 | CC(=O)N(C)c1cnn(C(=O)N2CC3CN(Cc4ccccc4C)CC3C2)c1 (centres unmarked) [Example 94, N-methyl-N-(1-(5-(2-methylbenzyl)octahydropyrrolo[3,4-c]pyrrole-2-carbonyl)-1H-pyrazol-4-yl)acetamide]
8 | ≥ 75 | ≥ 75 | – | – | CC(=O)N(C)c1cnn(C(=O)N2C[C@H]3C[C@H](N(C)Cc4cc(C(F)(F)F)ccc4C(F)(F)F)C[C@H]3C2)c1 [Example 146, N-(1-(trans-5-((2,5-bis(trifluoromethyl)benzyl)(methyl)amino)octahydrocyclopenta[c]pyrrole-2-carbonyl)-1H-pyrazol-4-yl)-N-methylacetamide]
9 | ≥ 75 | ≥ 75 | – | – | CC(=O)N(C)c1cnn(C(=O)N2CCC3(CCN(Cc4ccc(-c5nccs5)cc4Cl)C3)C2)c1 (centres unmarked) [Example 269, N-(1-(7-(2-chloro-4-(thiazol-2-yl)benzyl)-2,7-diazaspiro[4.4]nonane-2-carbonyl)-1H-pyrazol-4-yl)-N-methylacetamide]
10 | ≥ 75 | ≥ 75 | ≤ 100 | ≤ 100 | CC(=O)N(C)c1cnn(C(=O)N2C[C@H]3C[C@H](N(C)Cc4cc(Cl)ccc4C(F)(F)F)C[C@H]3C2)c1 [Example 164, N-(1-(trans-5-((5-chloro-2-(trifluoromethyl)benzyl)(methyl)amino)octahydrocyclopenta[c]pyrrole-2-carbonyl)-1H-pyrazol-4-yl)-N-methylacetamide]
11 | ≥ 75 | 0 to 25 | – | – | COc1ccccc1CN1CCN(C(=O)n2cc(N(C)C(C)=O)cn2)CC1 [Example 213, N-(1-(4-(2-methoxybenzyl)piperazine-1-carbonyl)-1H-pyrazol-4-yl)-N-methylacetamide]
12 | 50 to 75 | ≥ 75 | 100 to 1000 | 100 to 1000 | CC(=O)N(C)c1cnn(C(=O)N2CC3CN(Cc4ccc(C)cc4)CC3C2)c1 (centres unmarked) [Example 91, N-methyl-N-(1-(5-(4-methylbenzyl)octahydropyrrolo[3,4-c]pyrrole-2-carbonyl)-1H-pyrazol-4-yl)acetamide]
13 | ≥ 75 | ≥ 75 | 100 to 1000 | ≤ 100 | CC(=O)N(C)c1cnn(C(=O)N2CCC3(CCN(Cc4cccc(Cl)c4Cl)C3)C2)c1 (centres unmarked) [Example 59, N-(1-(7-(2,3-dichlorobenzyl)-2,7-diazaspiro[4.4]nonane-2-carbonyl)-1H-pyrazol-4-yl)-N-methylacetamide]
14 | ≥ 75 | ≥ 75 | ≤ 100 | ≤ 100 | CC(=O)N(C)c1cnn(C(=O)N2CC3CN(Cc4ccc(F)c(N5CCCC5)c4)CC3C2)c1 (centres unmarked) [Example 100, N-(1-(5-(4-fluoro-3-(pyrrolidin-1-yl)benzyl)octahydropyrrolo[3,4-c]pyrrole-2-carbonyl)-1H-pyrazol-4-yl)-N-methylacetamide]
15 | 50 to 75 | 25 to 50 | – | – | CC(=O)N(C)c1cnn(C(=O)N2CC3(CCN(Cc4ccc(N5CCCC5)cc4)CC3)C2)c1 [Example 19, N-methyl-N-(1-(7-(4-(pyrrolidin-1-yl)benzyl)-2,7-diazaspiro[3.5]nonane-2-carbonyl)-1H-pyrazol-4-yl)acetamide]
16 | ≥ 75 | 50 to 75 | – | – | CC(=O)N(C)c1cnn(C(=O)N2CC3CN(Cc4ccccc4N4CCCC4)CC3C2)c1 (centres unmarked) [Example 184, N-methyl-N-(1-(5-(2-(pyrrolidin-1-yl)benzyl)octahydropyrrolo[3,4-c]pyrrole-2-carbonyl)-1H-pyrazol-4-yl)acetamide]
17 | ≥ 75 | ≥ 75 | – | – | CC(=O)N(C)c1cnn(C(=O)N2CC3CN(Cc4ccc(Oc5nc6ccccc6s5)cc4Cl)CC3C2)c1 (centres unmarked) [Example 252, N-(1-(5-(4-(benzo[d]thiazol-2-yloxy)-2-chlorobenzyl)octahydropyrrolo[3,4-c]pyrrole-2-carbonyl)-1H-pyrazol-4-yl)-N-methylacetamide]
18 | 50 to 75 | ≥ 75 | 100 to 1000 | ≤ 100 | CC(=O)N(C)c1cnn(C(=O)N2C[C@H]3C[C@@H](N(C)Cc4cccc(Cl)c4)C[C@H]3C2)c1 [Example 141, N-(1-(cis-5-((3-chlorobenzyl)(methyl)amino)octahydrocyclopenta[c]pyrrole-2-carbonyl)-1H-pyrazol-4-yl)-N-methylacetamide]
19 | ≥ 75 | ≥ 75 | 100 to 1000 | ≤ 100 | CC(=O)N(C)c1cnn(C(=O)N2CCC3(CCN(Cc4cccc(C(F)(F)F)c4)C3)C2)c1 (single isomer, unassigned) [Example 65, N-methyl-N-(1-(7-(3-(trifluoromethyl)benzyl)-2,7-diazaspiro[4.4]nonane-2-carbonyl)-1H-pyrazol-4-yl)acetamide]
20 | ≥ 75 | ≥ 75 | 100 to 1000 | ≤ 100 | CC(=O)N(C)c1cnn(C(=O)N2CCC3(CCN(Cc4ccc(N5CCCC5)c(Cl)c4)C3)C2)c1 (centres unmarked) [Example 67, N-(1-(7-(3-chloro-4-(pyrrolidin-1-yl)benzyl)-2,7-diazaspiro[4.4]nonane-2-carbonyl)-1H-pyrazol-4-yl)-N-methylacetamide]
21 | ≥ 75 | ≥ 75 | – | – | CC(=O)N(C)c1cnn(C(=O)N2C[C@H]3C[C@@H](N(C)Cc4cc(C(F)(F)F)ccc4C(F)(F)F)C[C@H]3C2)c1 [Example 140, N-(1-(cis-5-((2,5-bis(trifluoromethyl)benzyl)(methyl)amino)octahydrocyclopenta[c]pyrrole-2-carbonyl)-1H-pyrazol-4-yl)-N-methylacetamide]
22 | ≥ 75 | ≥ 75 | – | – | CC(=O)N(C)c1cnn(C(=O)N2CC3CN(Cc4ccc(N5CCOCC5)c(Cl)c4)CC3C2)c1 (centres unmarked) [Example 95, N-(1-(5-(3-chloro-4-morpholinobenzyl)octahydropyrrolo[3,4-c]pyrrole-2-carbonyl)-1H-pyrazol-4-yl)-N-methylacetamide]
23 | ≥ 75 | ≥ 75 | ≤ 100 | ≤ 100 | CC(=O)N(C)c1cnn(C(=O)N2CCN(Cc3ccc(-c4ccccc4)cc3C)CC2)c1 [Example 201, N-methyl-N-(1-(4-((3-methylbiphenyl-4 yl)methyl)piperazine-1-carbonyl)-1H-pyrazol-4-yl)acetamide]
24 | ≥ 75 | 0 to 25 | – | – | CC(=O)N(C)c1cnn(C(=O)N2CCN(Cc3ccccc3N3CCOCC3)CC2)c1 [Example 216, N-methyl-N-(1-(4-(2-morpholinobenzyl)piperazine-1-carbonyl)-1H-pyrazol-4-yl)acetamide]
25 | 50 to 75 | ≥ 75 | 1000 to 10000 | 100 to 1000 | COc1cccc(CN2CC3CN(C(=O)n4cc(N(C)C(C)=O)cn4)CC3C2)c1 (centres unmarked) [Example 181, N-(1-(5-(3-methoxybenzyl)octahydropyrrolo[3,4-c]pyrrole-2-carbonyl)-1H-pyrazol-4-yl)-N-methylacetamide]

Row | SMILES | inhibition at 1 µM [1] [%] | inhibition at 1 µM [2] [%] | IC50 [1] [nM] | IC50 [2] [nM]
26 | CC(=O)N(C)c1cnn(C(=O)N2C[C@H]3C[C@H](N(C)Cc4ccc(N5C6CCC5COC6)cc4C(F)(F)F)C[C@H]3C2)c1 [Example 155, N-(1-(trans-5-((4-(3-oxa-8-azabicyclo[3.2.1]octan-8-yl)-2-(trifluoromethyl)benzyl)(methyl)amino)octahydrocyclopenta[c]pyrrole-2-carbonyl)-1H-pyrazol-4-yl)-N-methylacetamide] | ≥ 75 | ≥ 75 | – | –

Source: patent publication US10323038B2, “Pyrazole compounds and methods of making and using same” (ABIDE THERAPEUTICS, INC., priority 2015, dated 2019)
